Assay results taken from paper PMC4965013, “Open Source Drug Discovery with the Malaria Box Compound Collection for Neglected Diseases and Beyond” (PLoS Pathogens, 2016).
“And” between values parts separate entries of the source, which are not always exact repeats. Equal entries are not always repeated.

Experiments:
PfPMT = PfPMT (Plasmodium falciparum, UniProt Q8IDQ9); assay: PfPMT gene replacement yeast growth; conditions: 100µM
[1] = tested on: NCI60 human tumor cell lines; assay: NCI60 5-dose (dose-response) assay; format: cell-based; conditions: for MGLI50 = Mean Growth Log I50: 5-dose, mean over NCI60 panel; for _MID Log10GI50 / _MID Log10LC50 / _MID Log10TGI: mean over cell lines of one experiment
From the text: Columns IE-KK. NCI: Misra group (data presented first in this paper). NCI60 anti-tumor cell activity. Methods: […] These 60 cell lines, along with others, have been developed at NCI and have been maintained and distributed for research purposes by NCI for over 25 years. The experimental readout provides both inhibition of cell growth and cell kill. The screen was originally designed to prioritize agents for further evaluation. […] This is the same as for the 5-dose assay, described on http://dtp.cancer.gov/branches/btb/ivclsp.html. […] Testing beyond the initial screen: There were 133 compounds that passed threshold to proceed to 5-dose (dose-response) (data are available for the 133 compounds at the DTP public website (dtp.cancer.gov) by searching either the MMV number or NSC number). After examination of the 5-dose data, 10 compounds were selected for repeat testing based generally on potency, differential cell activity or activity on an individual cell lines or cell line panel. A summary of the data for the 10 compounds of interest is in the table below.

[2] = tested on: P. falciparum 3D7 trophozoites; assay: Metabolomic fingerprint profiling LC-MS; format: cell-based, Plasmodium falciparum; design: UDP-D-glucose / ADP-D-glucose: unit not given here
P. falciparum = assay: EC50 listed in S2 Table Metabolomics (used to set the concentration tested); format: cell-based; conditions: Plasmodium falciparum; EC50 used for Factor_XEC50 in metabolomics; read-out: EC50_nM
[3] = metabolite level change after treatment

Sequence of PfPMT (Q8IDQ9 whole entry): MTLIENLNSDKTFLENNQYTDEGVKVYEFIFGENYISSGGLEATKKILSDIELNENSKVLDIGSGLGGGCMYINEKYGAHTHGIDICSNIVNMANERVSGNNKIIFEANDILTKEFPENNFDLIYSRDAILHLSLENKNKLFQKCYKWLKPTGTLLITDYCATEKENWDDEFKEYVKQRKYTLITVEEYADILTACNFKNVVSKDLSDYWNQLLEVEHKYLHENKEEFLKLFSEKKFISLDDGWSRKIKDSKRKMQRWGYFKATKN

Structure (SMILES): CCOc1ccc(Nc2c3ccccc3nc3ccccc23)cc1 [MMV000304]
- candidate inhibitors of PfPMT activity (yeast functional assay) (PfPMT): candidate inhibitors of PfPMT activity

Structure (SMILES): COc1cccc(C(=O)NC(c2ccc(C)cc2)c2cc(Cl)c3cccnc3c2O)c1 (centres unmarked) [MMV665969]
- MGLI50 = Mean Growth Log I50 [1]: -6.29
- _MID Log10GI50 [1]: -6.3 Molar
- _MID Log10LC50 [1]: -4.16 Molar
- _MID Log10TGI [1]: -4.91 Molar

Structure (SMILES): OC(CNCC1CCCO1)Cn1c2ccc(Cl)cc2c2cc(Cl)ccc21 (centres unmarked) [MMV396736]
- candidate inhibitors of PfPMT activity (yeast functional assay) (PfPMT): candidate inhibitors of PfPMT activity

Structure (SMILES): CCOc1cc(Cl)c(C(C)NC(=O)c2cccc(OC)c2)cc1OCC (centres unmarked) [MMV665803]
- MGLI50 = Mean Growth Log I50 [1]: -5.01
- _MID Log10LC50 [1]: -4.0 Molar
- _MID Log10GI50 ([1]; listed as 766546/2): -5.1 Molar and -4.93 Molar
- _MID Log10TGI ([1]; listed as 766546/2): -4.1 Molar and -4.05 Molar

Structure (SMILES): Cc1ccc2c(C)nc(Nc3nc(C)cc(-c4ccccc4)n3)nc2c1 [MMV007041]
- candidate inhibitors of PfPMT activity (yeast functional assay) (PfPMT): candidate inhibitors of PfPMT activity

Structure (SMILES): COc1ccc(C2c3ccc4ccccc4c3Oc3ncn(CCCN(C)C)c(=N)c32)cc1 (centres unmarked) [MMV667491]
- candidate inhibitors of PfPMT activity (yeast functional assay) (PfPMT): candidate inhibitors of PfPMT activity

Structure (SMILES): CCOC(=O)c1cnc2ccc(OC)cc2c1Nc1ccc(N2CCN(C)CC2)cc1 [MMV000704]
- candidate inhibitors of PfPMT activity (yeast functional assay) (PfPMT): candidate inhibitors of PfPMT activity

Structure (SMILES): COc1cc(C(=O)ON=C(N)Cc2cccc3ccccc23)cc(OC)c1OC [MMV666687]
- candidate inhibitors of PfPMT activity (yeast functional assay) (PfPMT): candidate inhibitors of PfPMT activity

Structure (SMILES): O=C(Nc1ccc(-c2nc3cc(NC(=O)c4ccc(Cl)cc4)ccc3[nH]2)cc1)c1ccc(Cl)cc1 [MMV006962]
- Notes (NCI60 5-dose activity pattern) [1]: Differential, CNS
- MGLI50 = Mean Growth Log I50 [1]: -5.61

Structure (SMILES): O=C(NC1CCN(Cc2ccccc2)CC1)c1cc(-c2ccncc2)nc2ccc(Cl)cc12 [MMV020275]
- MGLI50 = Mean Growth Log I50 [1]: -4.93
- _MID Log10GI50 ([1]; listed as 766585/2): -4.95 Molar and -4.91 Molar
- _MID Log10LC50 ([1]; listed as 766585/2): -4.05 Molar and -4.01 Molar
- _MID Log10TGI ([1]; listed as 766585/2): -4.34 Molar and -4.19 Molar

Structure (SMILES): CCCCCCc1cc2cc(-c3nc4ccccc4[nH]3)c(=Nc3ccccc3C)oc2cc1O [MMV666597]
- Notes (NCI60 5-dose activity pattern) [1]: Differential
- MGLI50 = Mean Growth Log I50 [1]: -5.57

Structure (SMILES): CN1c2ccccc2N(C)C1c1ccc2c(c1)OCO2 [MMV666009]
- candidate inhibitors of PfPMT activity (yeast functional assay) (PfPMT): candidate inhibitors of PfPMT activity

Structure (SMILES): CCc1ccc(Nc2cc(C)c3ccc(O)cc3n2)cc1 [MMV000570]
- Acetyllysine ([2]; S2 Table Metabolomics, metabolite Acetyllysine): -3.5798
- N-acetyl-L-ornithine ([2]; S2 Table Metabolomics, metabolite N-acetyl-L-ornithine): -2.11
- N-carbamoyl-L-aspartate ([2]; S2 Table Metabolomics, metabolite N-carbamoyl-L-aspartate): -1.956
- NADPH ([2]; S2 Table Metabolomics, metabolite NADPH): 0.5669
- dAMP ([2]; S2 Table Metabolomics, metabolite dAMP): 0.09919
- dCMP ([2]; S2 Table Metabolomics, metabolite dCMP): -0.6377
- dTDP ([2]; S2 Table Metabolomics, metabolite dTDP): 0.1581
- dTMP ([2]; S2 Table Metabolomics, metabolite dTMP): 0.002348
- dTTP ([2]; S2 Table Metabolomics, metabolite dTTP): -0.746
- dihydroorotate ([2]; S2 Table Metabolomics, metabolite dihydroorotate): -1.827
- orotate ([2]; S2 Table Metabolomics, metabolite orotate): -1.158
- DLH ([2]; S2 Table Metabolomics, peptide DLH): -3.486
- DLS/SDL/SID ([2]; S2 Table Metabolomics, peptide DLS/SDL/SID): -2.98
- PD ([2]; S2 Table Metabolomics, peptide PD): -3.426
- PEE ([2]; S2 Table Metabolomics, peptide PEE): -2.976
- PVNF ([2]; S2 Table Metabolomics, peptide PVNF): -3.666
- 3-phosphoglycerate ([2]; metabolite 3-phosphoglycerate, S2 Table Metabolomics): -0.3004
- ADP-D-glucose ([2]; metabolite ADP-D-glucose, S2 Table Metabolomics): -0.2531
- ATP ([2]; metabolite ATP, S2 Table Metabolomics): -0.4297
- CDP ([2]; metabolite CDP, S2 Table Metabolomics, change in metabolite level after compound treatment): 0.1199
- D-sedoheptulose-1/7-phosphate ([2]; metabolite D-sedoheptulose-1/7-phosphate, S2 Table Metabolomics, change in metabolite level after compound treatment): -0.03599
- FAD ([2]; metabolite FAD, S2 Table Metabolomics): 0.02687
- GMP ([2]; metabolite GMP, S2 Table Metabolomics, change in metabolite level after compound treatment): -0.7921
- NAD+ ([2]; metabolite NAD+, S2 Table Metabolomics): -0.005921
- NADP+ ([2]; metabolite NADP+, S2 Table Metabolomics): 0.04495
- Octoluse Bisphosphate ([2]; metabolite Octoluse Bisphosphate, S2 Table Metabolomics, change in metabolite level after compound treatment): -0.7521
- Pyroglutamic acid ([2]; metabolite Pyroglutamic acid, S2 Table Metabolomics): 0.02528
- UDP-D-glucose ([2]; metabolite UDP-D-glucose, S2 Table Metabolomics): -0.0202
- UDP-D-glucuronate ([2]; metabolite UDP-D-glucuronate, S2 Table Metabolomics): -0.1762
- UDP-N-acetyl-glucosamine ([2]; metabolite UDP-N-acetyl-glucosamine, S2 Table Metabolomics): -0.01786
- UDP ([2]; metabolite UDP, S2 Table Metabolomics, change in metabolite level after compound treatment): 0.2064
- UMP ([2]; metabolite UMP, S2 Table Metabolomics, change in metabolite level after compound treatment): -0.3865
- UTP ([2]; metabolite UTP, S2 Table Metabolomics, change in metabolite level after compound treatment): -0.5565
- a-ketoglutarate ([2]; metabolite a-ketoglutarate, S2 Table Metabolomics): -0.893
- citrate/isocitrate ([2]; metabolite citrate/isocitrate, S2 Table Metabolomics, change in metabolite level after compound treatment): -0.9405
- cytidine ([2]; metabolite cytidine, S2 Table Metabolomics): 0.2459
- dATP ([2]; metabolite dATP, S2 Table Metabolomics): 0.202
- dGMP/AMP ([2]; metabolite dGMP/AMP, S2 Table Metabolomics, change in metabolite level after compound treatment): 0.175
- fumarate ([2]; metabolite fumarate, S2 Table Metabolomics, change in metabolite level after compound treatment): -1.642
- glucose-1/6-phosphate ([2]; metabolite glucose-1/6-phosphate, S2 Table Metabolomics, change in metabolite level after compound treatment): -0.09278
- glycerate ([2]; metabolite glycerate, S2 Table Metabolomics, change in metabolite level after compound treatment): -0.2054
- guanine ([2]; metabolite guanine, S2 Table Metabolomics, change in metabolite level after compound treatment): -0.06952
- guanosine ([2]; metabolite guanosine, S2 Table Metabolomics, change in metabolite level after compound treatment): -0.3954
- hypoxanthine ([2]; metabolite hypoxanthine, S2 Table Metabolomics): 0.06102
- indole ([2]; metabolite indole, S2 Table Metabolomics): -0.08521
- inosine ([2]; metabolite inosine, S2 Table Metabolomics, change in metabolite level after compound treatment): -0.1832
- 2_3-Diphosphoglyceric acid [2, 3]: -0.3845
- 4-phosphopantothenate [2, 3]: -0.2389
- 6-phospho-D-gluconate [2, 3]: -0.3077
- FMN [2, 3]: -0.01655
- IMP [2, 3]: -0.277
- Pyrophosphate [2, 3]: 0.07301
- Sedoheptoluse bisphosphate [2, 3]: -0.5323
- cyclic-AMP [2, 3]: -0.9231
- glutathione disulfide [2, 3]: -0.5684
- lactate [2, 3]: -0.3085
- myo-inositol [2, 3]: -0.5155
- nicotinate ([2]; metabolite nicotinate, S2 Table Metabolomics): 0.1664
- ornithine ([2]; metabolite ornithine, S2 Table Metabolomics): -0.4755
- phosphoenolpyruvate ([2]; metabolite phosphoenolpyruvate, S2 Table Metabolomics): -0.0203
- pyruvate ([2]; metabolite pyruvate, S2 Table Metabolomics, change in metabolite level after compound treatment): 0.06241
- ribose-phosphate ([2]; metabolite ribose-phosphate, S2 Table Metabolomics): -0.6825
- sarcosine/alanine ([2]; metabolite sarcosine/alanine, S2 Table Metabolomics, change in metabolite level after compound treatment): -1.674
- sn-glycerol-3-phosphate ([2]; metabolite sn-glycerol-3-phosphate, S2 Table Metabolomics): -0.5868
- succinate/methylmalonic acid ([2]; metabolite succinate/methylmalonic acid, S2 Table Metabolomics, change in metabolite level after compound treatment): -0.5023
- uridine ([2]; metabolite uridine, S2 Table Metabolomics, change in metabolite level after compound treatment): -0.4463
- xanthosine ([2]; metabolite xanthosine, S2 Table Metabolomics, change in metabolite level after compound treatment): -1.566
- EC50 (P. falciparum): 194 nM
- candidate inhibitors of PfPMT activity (yeast functional assay) (PfPMT): candidate inhibitors of PfPMT activity

Structure (SMILES): N=c1n(CCN2CCCCC2)c2ccccc2n1CC(=O)c1ccc(Cl)c(Cl)c1 [MMV396723]
- candidate inhibitors of PfPMT activity (yeast functional assay) (PfPMT): candidate inhibitors of PfPMT activity

Structure (SMILES): CCOc1cc(Br)c(C(C)NC(=O)c2cccc(OC)c2)cc1OCC (centres unmarked) [MMV665796]
- MGLI50 = Mean Growth Log I50 [1]: -5
- _MID Log10LC50 [1]: -4.0 Molar
- _MID Log10GI50 ([1]; listed as 766556/2): -5.02 Molar and -4.97 Molar
- _MID Log10TGI ([1]; listed as 766556/2): -4.07 Molar and -4.08 Molar

Structure (SMILES): Cc1ccc(OCCCCCCNCCO)c(C)c1 [MMV666020]
- MGLI50 = Mean Growth Log I50 [1]: -4.9
- _MID Log10GI50 ([1]; listed as 766672/2): -4.93 Molar and -4.86 Molar
- _MID Log10LC50 ([1]; listed as 766672/2): -4.21 Molar and -4.19 Molar
- _MID Log10TGI ([1]; listed as 766672/2): -4.56 Molar and -4.52 Molar

Structure (SMILES): Oc1c(CN2CCN(c3ccccc3F)CC2)cc(Br)c2cccnc12 [MMV000760]
- Notes (NCI60 5-dose activity pattern) [1]: Differential
- MGLI50 = Mean Growth Log I50 [1]: -6.02
- _MID Log10GI50 ([1]; listed as 766634/2): -6.03 Molar and -6.0 Molar
- _MID Log10LC50 ([1]; listed as 766634/2): -4.04 Molar and -4.06 Molar
- _MID Log10TGI ([1]; listed as 766634/2): -4.67 Molar and -4.74 Molar

Structure (SMILES): CCCCCCn1c(=N)n(CC(O)COc2cccc(C)c2)c2ccccc21 (centres unmarked) [MMV000445]
- candidate inhibitors of PfPMT activity (yeast functional assay) (PfPMT): candidate inhibitors of PfPMT activity
